Results as given in US11707440B2 (priority 2017, dated 2023).

Key:
[1] = system: subjects with MDD at imminent risk for suicide; experiment: SIBAT clinical global judgment of suicide risk, […]2001; type: in vivo, human; settings: Baseline(DB), predose Day 1; ITT analysis set
Excerpt: The clinical global judgment of suicide risk (Module 8) summarizes clinician overall judgment of suicide risk as derived from information gathered from the full SIBAT tool. It operates like numerous other CGI-severity scales that have been used in other psychiatric studies. Change in the clinical global judgment of suicide risk is designed to directly identify clinical meaningful changes in suicidal ideation and to permit classification of suicide risk.
The analysis of the change in SIBAT score was based on an ANCOVA model on ranks of change in SIBAT with treatment, antidepressant therapy, and analysis center as factors, and baseline value (unranked) as a covariate. There was a significant difference (two-sided […]) between the two treatment groups when comparing the mean rank of change from baseline at Day 1: 4-hours postdose in favor of esketamine 84 mg See, Table 58. See, FIG. 39. […] This difference was not evident at the Day 25 DB endpoint. See, FIG. 40, which is based on LOCF data and analyzed using Cochran-Mantel-Haenszel test controlling for analysis center and antidepressant therapy.

[2] = system: subjects with MDD at imminent risk for suicide; experiment: Beck Hopelessness Scale (BHS), […]2001; type: in vivo, human; settings: for BHS total score change, Diff. of LS Means (SE) minus placebo: ANCOVA LOCF
Excerpt: The BHS is a self-reported measure to assess one's level of negative expectations or pessimism regarding the future. It consists of 20 true-false items that examine the respondent's attitude over the past week by either endorsing a pessimistic statement or denying an optimistic statement. For every statement, each response is assigned a score of 0 or 1. The total BHS score is a sum of item responses and ranges from 0 to 20, with a higher score representing a higher level of hopelessness.

[3] = Excerpt: This example provides an LC-MS/MS method for the determination of ketamine and norketamine in sodium heparin human plasma using ketamine-d4 and norketamine-d4 as the respective internal standards (IS).
[4] = system: patients with treatment-resistant depression (TRD); experiment: CADSS, Example 7; settings: human, in vivo, other: intranasal
Method: (§1) Adverse events were monitored throughout the study. Other safety assessments (i.e., laboratory tests, vital signs, physical examination) were performed at pre-specified time points. Vital signs, the Clinician Administered Dissociative States Scale (CADSS; Bremner, “Measurement of dissociative states with the clinician-administered dissociative states scale (CADSS)”, J. Traumatic Stress, 1998, 11(1):125-136), and the 4-item positive symptom subscale from the Brief Psychiatric Rating Scale (BPRS; Overall, “The Brief Psychiatric Rating Scale. Psychological Reports”, 1962, 10:799-812) were assessed pre-dose, at 40 minutes, and 2 hours post-dose.

[5] = Pharmacokinetics of intranasal esketamine in healthy subjects (Example 9); settings: healthy subjects; 28, 56 and 84 mg
Method: Pharmacokinetic blood samples for measurement of esketamine and noresketamine concentrations in plasma were collected from predose until up to 24 hours after each intranasal esketamine regimen on Day 1 of each period.
Blood samples (4 mL each) for determination of esketamine and noresketamine plasma concentrations were collected into the appropriate collection tube (e.g., Vacutainer®) at timepoints 0.00, 0.12, 0.20, 0.37, 0.53, 0.67, 0.83, 1.00, 1.25, 1.50, 2.00, 3.00, 4.00, 6.00, 9.00, 12.00, 18.00, and 24.00 h. The total amount of blood to be drawn for clinical laboratory tests and PK evaluations is approximately 327 mL.
Plasma samples were analyzed for esketamine and noresketamine concentrations using the validated, specific and sensitive liquid chromatography coupled to tandem mass spectrometry (LC-MS/MS) achiral method of Example 8.
Serial PK blood samples (4 mL each) were collected for a 24-hour period from each subject (Periods 1, 2, and 3). […] Statistical Methods 1.6.4.1. Sample Size
The following key parameters of esketamine and noresketamine in plasma were calculated using noncompartmental methods and actual sampling times: Cmax, tmax, AUClast, AUC∞, t1/2,λ, and λz.

[6] = system: patients with treatment-resistant depression (TRD); experiment: BPRS positive symptom subscale, Example 7; parameters: species or system human; settings: in vivo
Method: as §1

[7] = system: elderly subjects with TRD; settings: US patients aged ≥65 years
glutamate NMDA receptor = settings: in vitro; cited from earlier work
subjects with TRD [8] = settings: human, in vivo, other: intranasal
Method: The Clinician Administered Dissociative States Scale (CADSS) was measured prior to the start of each dose, at 40 minutes, and 1.5 hours postdose.

[9] = Pharmacokinetics of esketamine nasal spray, 14 Phase 1 studies (Example 10); settings: human, plasma, inhaled or intranasal
Method: The data herein was assembled from 14 Phase 1 studies; each Phase 1 study was performed similarly to the study outlined in Example 9 in which the PK of esketamine was assessed.

subjects with TRD [10] = settings: human, in vivo, other: intranasal; remark: listed apart in the source
Method: FIGS. 53 and 54 present means for blood pressure over time by treatment group in the maintenance phase.
Transient blood pressure increases peaked for the esketamine group at approximately 40 minutes post dose and returned closer to predose levels by 1.5 hours post dose.

[11] = system: patients with treatment-resistant depression (TRD); experiment: Blood pressure and heart rate, Example 7; type: in vivo, human
Method: as §1

[12] = system: subjects with MDD at imminent risk for suicide; type: in vivo, human; settings: esketamine 84 mg
Method: Transient blood pressure increases peaked for the esketamine group at approximately 40 minutes post dose with the maximum mean increases (across all dosing days) in systolic BP being 8.7 in the placebo group and 16.7 in the esketamine 84 mg group. The maximum mean increases (across all dosing days) in diastolic BP were 7.6 in the placebo group and 11.9 in the esketamine 84 mg group. […] See, FIGS. 46 and 47.

[13] = Day 1(DB): 4H, LOCF, ITT analysis set
[14] = End Point(DB), LOCF, ITT analysis set
[15] = in most cases at 10 or 40 minutes post-dose

## CN[C@]1(c2ccccc2Cl)CCCCC1=O [Esketamine 84 mg]
[1]
  SIBAT Clinical Global Judgment of Suicide Risk, Median (Range): 6.0 (5; 6)
[2]; Baseline(DB), predose Day 1, ITT analysis set
  BHS total score, Median (Range): 17.0 (9; 20)
[2]; Day 1(DB): 4H
  BHS total score change, Diff. of LS Means (SE) minus placebo: −1.5 (1.47)
[2]; [13]
  BHS total score change from baseline, Mean (SD): −4.1 (5.63)
  BHS total score change from baseline, Median (Range): −2.0 (−16; 2)
  BHS total score, Median (Range): 14.0 (0; 20)
[2]; End Point(DB)
  BHS total score change, Diff. of LS Means (SE) minus placebo: −2.3 (1.66)
[2]; [14]
  BHS total score change from baseline, Mean (SD): −10.3 (5.51)
  BHS total score change from baseline, Median (Range): −11.0 (−19; 0)
  BHS total score, Mean (SD): 6.2 (5.96)
  BHS total score, Median (Range): 4.0 (0; 20)

## CN[C@]1(c2ccccc2Cl)CCCCC1=O [esketamine, (S)-2-(2-chlorophenyl)-2-(methylamino)cyclohexanone]
[3]; freeze (−20° C.)/thaw (room temperature)
  QC sample freeze/thaw stability: 3 freeze (−20° C.)/thaw (room temperature) cycles
[3]; human plasma, room temperature
  QC sample bench-top stability: 18 hours at room temperature
[4]
  Time of peak of perceptual changes/dissociative symptoms (CADSS): 30 to 40 min
  Time to resolution of perceptual changes/dissociative symptoms (CADSS): ≤ 2 h
[5]
  AUC (AUClast and AUC∞) variability, range: 25.0% to 30.4
  Cmax variability (percent coefficient of variation), range across treatment groups: 35.7% to 36.7
[6]
  Symptoms suggestive of psychosis (BPRS-positive assessment): No participant manifested symptoms suggestive of psychosis
[7]
  Patients who withdrew the nasal spray: 2 patients
Glutamate NMDA receptor
  Greater affinity for the glutamate NMDA receptor than R-ketamine: 3 to 4 fold
Subjects with TRD [8]
  Time to resolution of dissociative and perceptual change symptoms (CADSS): ≤ 1.5 hours postdose
[9]; 28 mg
  AUC: 0.128 to 0.183 µg·h/mL
[9]; 56 mg
  AUC: 0.216 to 0.317 µg·h/mL
[9]; 84 mg
  AUC: 0.31 to 0.489 µg·h/mL
Subjects with TRD [10]
  Time of peak of transient blood pressure increases: approximately 40 minutes post dose
  Time of return of blood pressure closer to predose levels: ≤ 1.5 hours post dose
[11]; dosing days
  Diastolic blood pressure, maximum mean change: 10.3 mmHg
  Heart rate, maximum mean change: 9.4 bpm
  Systolic blood pressure, maximum mean change: 19.0 mmHg
[11]; human, in vivo, other: intranasal
  Time of return of elevated blood pressure to the normal range: ≤ 2 hours post-dose
[11]; [15]
  Maximum diastolic blood pressure value: 115 mmHg
  Maximum systolic blood pressure value: 199 mmHg
[12]
  Maximum mean increase in diastolic BP (across all dosing days): 11.9
  Maximum mean increase in systolic BP (across all dosing days): 16.7
  Time of return of blood pressure to normal range: ≤ 2 hours post dose
